# Source: patent US20060188938A1, “Compounds for inhibiting beta-amyloid production and methods of identifying the compounds” (priority 2005, published 2006)
# Assays:
# [1] = test system: β-amyloid production by 7W WT APP751 CHO cells; assay: Screening of NF-kB activation inhibitors, Aβ1-40 and Aβ1-42 ELISA (Example 3); format: cell-based, Chinese hamster; conditions: 24 hours (FIG. 6)
# Method: Most of the compounds screened can be obtained as Calbiochem products from EMD Biosciences, Inc., La Jolla, Calif. R—and S-Niguldipine are available e.g., from Tocris Cookson Inc., Ellisville, Mo. CAPE and Artemisinin are available, e.g., as a Sigma product from Sigma-Aldrich Corp., St. Louis, Mo.
# Each compound was dissolved in DMSO. 7W WT APP751 CHO cells overexpressing APP751 were plated into 96-well culture plates in 200 μL of culture medium. Each compound from the library was added to confluent cells to a final concentration of 500 nM, 1 μM, 5 μM, 10 μM and/or 30 μM. After 24 hours of treatment, culture medium was collected and dissolved 10-fold and 2-fold for measuring the level of Aβ1-40 and Aβ1-42, respectively. Aβ1-40 and Aβ1-42 were determined using commercially available ELISAs (Biosource, CA), following the recommendations of the manufacturer.
smiles,measurement,setting,value
COC(=O)C1=C(C)NC(C)=C(C(=O)OCCCN2CCC(c3ccccc3)(c3ccccc3)CC2)[C@H]1c1cccc([N+](=O)[O-])c1.Cl [(S)-(+)-niguldipine],concentration of Aβ1-40 compared to controls,[1]; 1 μM,significantly decreased
same,concentration of Aβ1-42 compared to controls,[1]; 1 μM,significantly decreased
same,concentration of total β-amyloid compared to controls,[1]; 1 μM,significantly decreased
same,concentration of Aβ1-40 compared to controls,[1]; 5 μM,significantly decreased
same,concentration of Aβ1-42 compared to controls,[1]; 5 μM,significantly decreased
same,concentration of total β-amyloid compared to controls,[1]; 5 μM,significantly decreased
same,concentration of Aβ1-40 compared to controls,[1]; 30 μM,significantly decreased
same,concentration of Aβ1-42 compared to controls,[1]; 30 μM,significantly decreased
same,concentration of total β-amyloid compared to controls,[1]; 30 μM,significantly decreased
"CCOC(=O)C1=C(C)NC(C)=C(C(=O)OCC)C1c1ccccc1Cl [Example 6, Diethyl 4-(2-chlorophenyl)-1,4-dihydro-2,6-dimethylpyridine-3,5-dicarboxylate]",melting point,,120 to 121 °C
"CC(=O)C1=C(C)NC(C)=C(C(C)=O)C1c1ccccc1Cl [Example 7, 4-(2-Chlorophenyl)-1,4-dihydro-2,6-dimethylpyridine-3,5-di(2-ethanone)]",melting point,,196 to 197 °C
"COC(=O)C1=C(C)NC(C)=C(C(=O)OC)C1c1ccccc1Cl [Example 8, Dimethyl 4-(2-chlorophenyl)-1,4-dihydro-2,6-dimethylpyridine-3,5-dicarboxylate]",melting point,,188 to 189 °C
"CC1=C(C(=O)OC(C)(C)C)C(c2ccccc2Cl)C(C(=O)OC(C)(C)C)=C(C)N1 [Example 9, Di-tert-butyl 4-(2-chlorophenyl)-1,4-dihydro-2,6-dimethylpyridine-3,5-dicarboxylate]",melting point,,194 to 196 °C
"COCCOC(=O)C1=C(C)NC(C)=C(C(=O)OCCOC)C1c1ccccc1Cl [Example 10, Bis(2-methoxyethyl) 4-(2-chlorophenyl)-1,4-dihydro-2,6-dimethylpyridine-3,5-dicarboxylate]",melting point,,120 to 121 °C
"CCOC(=O)C1=C(C)NC(C)=C(C(=O)OCC)C1c1ccccc1Br [Example 11, Diethyl 4-(2-bromophenyl)-1,4-dihydro-2,6-dimethylpyridine-3,5-dicarboxylate]",melting point,,144 to 145 °C
"CCOC(=O)C1=C(C)NC(C)=C(C(=O)OCC)C1c1ccccc1F [Example 12, Diethyl 4-(2-fluorophenyl)-1,4-dihydro-2,6-dimethylpyridine-3,5-dicarboxylate]",melting point,,151 to 152.5 °C
"CC1=C(C(=O)OC(C)(C)C)C(c2ccccc2Br)C(C(=O)OC(C)(C)C)=C(C)N1 [Example 14, Di-tert-butyl 4-(2-bromophenyl)-1,4-dihydro-2,6-dimethylpyridine-3,5-dicarboxylate]",melting point,,162 to 164 °C
"CC1=C(C(=O)OC(C)(C)C)C(c2ccccc2[N+](=O)[O-])C(C(=O)OC(C)(C)C)=C(C)N1 [Example 15, Di-tert-butyl 1,4-dihydro-2,6-dimethyl-4-(2-nitrophenyl)pyridine-3,5-dicarboxylate]",melting point,,159 to 161 °C
"C=CCOC(=O)C1=C(C)NC(C)=C(C(=O)OCC=C)C1c1ccccc1Cl [Example 16, Diallyl 4-(2-chlorophenyl)-1,4-dihydro-2,6-dimethylpyridine-3,5-dicarboxylate]",melting point,,98 to 99 °C
"COCC1=C(C(=O)OC)C(c2ccccc2Cl)C(C(=O)OC)=C(COC)N1 [Example 17, Dimethyl 4-(2-chlorophenyl)-1,4-dihydro-2,6-bis(methoxymethyl)pyridine-3,5-dicarboxylate]",melting point,,137 to 138 °C
"CCOC(=O)C1=C(C)NC(C)=C(C(=O)OCC)C1c1ccccc1I [Example 18, Diethyl 1,4-dihydro-4-(2-iodophenyl)-2,6-dimethylpyridine-3,5-dicarboxylate]",melting point,,173 to 174.5 °C
"COC(=O)C1=C(C)NC(C)=C(C(=O)OC)C1c1ccccc1Br [Example 19, Dimethyl 4-(2-bromophenyl)-1,4-dihydro-2,6-dimethylpyridine-3,5-dicarboxylate]",melting point,,164 to 165 °C
"CC1=C(C(=O)OC(C)(C)C)C(c2cccc(Cl)c2)C(C(=O)OC(C)(C)C)=C(C)N1 [Example 21, Di-tert-butyl 4-(3-chlorophenyl)-1,4-dihydro-2,6-dimethylpyridine-3,5-dicarboxylate]",melting point,,189.5 to 190.5 °C
"CCOC(=O)C1=C(C)NC(C)=C(C(=O)OCC)C1c1ccc(Cl)cc1 [Example 22, Diethyl 4-(4-chlorophenyl)-1,4-dihydro-2,6-dimethylpyridine-3,5-dicarboxylate]",melting point,,151 to 152 °C
"CC1=C(C(=O)OC(C)(C)C)C(c2ccc(Cl)cc2)C(C(=O)OC(C)(C)C)=C(C)N1 [Example 23, Di-tert-butyl 4-(4-chlorophenyl)-1,4-dihydro-2,6-dimethylpyridine-3,5-dicarboxylate]",melting point,,191.5 to 192.5 °C
"CCOC(=O)C1=C(C)NC(C)=C(C(=O)OCC)C1c1cccc(Br)c1 [Example 24, Diethyl 4-(3-bromophenyl)-1,4-dihydro-2,6-dimethylpyridine-3,5-dicarboxylate]",melting point,,125 to 126 °C
"CC1=C(C(=O)OC(C)(C)C)C(c2cccc(Br)c2)C(C(=O)OC(C)(C)C)=C(C)N1 [Example 25, Di-tert-butyl 4-(3-bromophenyl)-1,4-dihydro-2,6-dimethylpyridine-3,5-dicarboxylate]",melting point,,195 to 196 °C
"CC1=C(C(=O)OC(C)(C)C)C(c2ccc(Br)cc2)C(C(=O)OC(C)(C)C)=C(C)N1 [Example 27, Di-tert-butyl 4-(4-bromophenyl)-1,4-dihydro-2.6-dimethylpyridine-3,5-dicarboxylate]",melting point,,206 to 207 °C
"CC1=C(C(=O)OC(C)(C)C)C(c2ccccc2I)C(C(=O)OC(C)(C)C)=C(C)N1 [Example 28, Di-tert-butyl 1,4-dihydro-4-(2-iodophenyl)-2.6-dimethylpyridine-3,5-dicarboxylate]",melting point,,184 to 185 °C
"CCOC(=O)C1=C(C)NC(C)=C(C(=O)OCC)C1c1cccc(Cl)c1Cl [Example 31, Diethyl 4-(2,3-dichlorophenyl)-1,4-dihydro-2,6-dimethylpyridine-3,5-dicarboxylate]",melting point,,125 to 126 °C
"CC1=C(C(=O)OC(C)(C)C)C(c2cccc(Cl)c2Cl)C(C(=O)OC(C)(C)C)=C(C)N1 [Example 32, Di-tert-butyl 4-(2,3-dichlorophenyl)-1,4-dihydro-2,6-dimethylpyridine-3,5-dicarboxylate]",melting point,,144 to 145 °C
"CCOC(=O)C1=C(C)NC(C)=C(C(=O)OCC)C1c1cc(Cl)ccc1Cl [Example 34, Diethyl 4-(2,5-dichlorophenyl)-1,4-dihydro-2,6-dimethylpyridine-3,5-dicarboxylate]",melting point,,166.5 to 167.5 °C
NC(=O)Nc1sc(-c2ccc(F)cc2)cc1C(N)=O [IKK-2 Inhibitor IV],concentration of Aβ1-40 compared to controls,[1]; 500 nM,significantly decreased
same,concentration of Aβ1-42 compared to controls,[1]; 500 nM,significantly decreased
same,concentration of total β-amyloid compared to controls,[1]; 500 nM,significantly decreased
same,concentration of Aβ1-40 compared to controls,[1]; 5 μM,significantly decreased
same,concentration of Aβ1-42 compared to controls,[1]; 5 μM,significantly decreased
same,concentration of total β-amyloid compared to controls,[1]; 5 μM,significantly decreased
COC(=O)C1=C(C)NC(C)=C(C(=O)OCCCN2CCC(c3ccccc3)(c3ccccc3)CC2)[C@@H]1c1cccc([N+](=O)[O-])c1.Cl [R-niguldipine],concentration of Aβ1-40 compared to controls,[1]; 1 μM,significantly decreased
same,concentration of Aβ1-42 compared to controls,[1]; 1 μM,significantly decreased
same,concentration of total β-amyloid compared to controls,[1]; 1 μM,significantly decreased
same,concentration of Aβ1-40 compared to controls,[1]; 5 μM,significantly decreased
same,concentration of Aβ1-42 compared to controls,[1]; 5 μM,significantly decreased
same,concentration of total β-amyloid compared to controls,[1]; 5 μM,significantly decreased
same,concentration of Aβ1-40 compared to controls,[1]; 30 μM,significantly decreased
same,concentration of Aβ1-42 compared to controls,[1]; 30 μM,significantly decreased
same,concentration of total β-amyloid compared to controls,[1]; 30 μM,significantly decreased
CC1=C(O)C(=O)C=C2C1=CC=C1[C@@]2(C)CC[C@@]2(C)[C@@H]3C[C@](C)(C(=O)O)CC[C@]3(C)CC[C@]12C [celastrol],concentration of Aβ1-40 compared to controls,[1]; 500 nM,significantly decreased
same,concentration of Aβ1-42 compared to controls,[1]; 500 nM,significantly decreased
same,concentration of total β-amyloid compared to controls,[1]; 500 nM,significantly decreased
same,concentration of Aβ1-40 compared to controls,[1]; 5 μM,significantly decreased
same,concentration of Aβ1-42 compared to controls,[1]; 5 μM,significantly decreased
same,concentration of total β-amyloid compared to controls,[1]; 5 μM,significantly decreased
C=C1C(=O)O[C@@H]2C[C@@]3(C)CCCC(=C)[C@@H]3C[C@H]12 [isohelenin],concentration of Aβ1-40 compared to controls,[1]; 5 μM,significantly decreased
same,concentration of Aβ1-42 compared to controls,[1]; 5 μM,significantly decreased
same,concentration of total β-amyloid compared to controls,[1]; 5 μM,significantly decreased
same,concentration of Aβ1-40 compared to controls,[1]; 10 μM,significantly decreased
same,concentration of Aβ1-42 compared to controls,[1]; 10 μM,significantly decreased
same,concentration of total β-amyloid compared to controls,[1]; 10 μM,significantly decreased
C=C1C(=O)[C@@]23[C@H](O)C[C@@H]4C(C)(C)CC[C@H](O)[C@@]4(CO)[C@@H]2CC[C@@H]1[C@H]3O [kamebakaurin],concentration of Aβ1-40 compared to controls,[1]; 10 μM,significantly decreased
same,concentration of Aβ1-42 compared to controls,[1]; 10 μM,significantly decreased
same,concentration of total β-amyloid compared to controls,[1]; 10 μM,significantly decreased
same,concentration of Aβ1-40 compared to controls,[1]; 30 μM,significantly decreased
same,concentration of Aβ1-42 compared to controls,[1]; 30 μM,significantly decreased
same,concentration of total β-amyloid compared to controls,[1]; 30 μM,significantly decreased
